Reference: publication PMC11946194, “Rational Design, Synthesis, and Biological Evaluation of Novel Thiazole/Thiazolidinones Multitarget Anti-Human Immunodeficiency Virus Molecules” (Pharmaceuticals, 2025)
Like-named read-outs stand apart in the source and are kept apart here.

Legend:
[1] = target: T1, HIV-1 RT-associated RNase H (Human immunodeficiency virus type 1 group M subtype B, UniProt P04585); assay: RT RNase H polymerase-independent cleavage assay; assay type: biochemical
T1 construct: quantification of RNase H activity of reverse transcriptase (RT) enzyme
Method: The HIV-1 RT-associated RNase H activity was measured following the protocol cited by the detection and quantification of RNase H activity of reverse transcriptase (RT) enzyme with a hybrid substrate formed by a fluorescein labeled RNA annealed with Dabcyl DNA. In this assay the reaction mixture containing tris–HCl, pH 7.8, MgCl2, dithiothreitol (DTT), KCl, hybrid RNA/DNA (5′-[…]-3′-fluorescein,5′-[…]-3′-Dabcyl), and RT were incubated for 1 h at 37 °C, the reaction was stopped by the addition of EDTA, and products were measured with a Victor 3 (Perkin PerkinElmer VICTOR X3 Multilabel Counter Microplate Reader, Cridersville, OH, USA ) at 490/528 nm. The experiment was performed in triplicate. IC50 values were determined through nonlinear regression analysis, where the dose–response curves were fitted to a sigmoidal model (log(inhibitor) vs. response) using GraphPad Prism 10 software.

recombinant HIV-1 RT = target: T2, recombinant HIV-1 RT (Human immunodeficiency virus type 1 group M subtype B, UniProt P04585); assay: HIV-1 RT RDDP inhibitory activity (Roche colorimetric immunoassay kit); assay type: biochemical
T2 construct: recombinant HIV-1 RT; purchased Roche
Method: As described in our previous work, HIV-1 reverse transcriptase (RT) activity was measured using the Roche colorimetric immunoassay kit. DNA synthesis by RT was quantified after 2 h incubation at 37 °C. The reaction included PolyA:oligodT RNA template, recombinant HIV-1 RT, and various substrates, with biotin-DIG-labeled DNA detected via streptavidin-coated ELISA wells. Inhibitor activity was tested by pre-incubating RT with compounds before substrate addition. The absorbance at 405 nm was measured to calculate enzyme activity and IC50 values. […] The experiment was performed in triplicate. The data analysis for obtaining the IC50 values and standard deviation (SD)was performed using nonlinear regression analysis, specifically fitting the dose–response curves to a sigmoidal model (log(inhibitor) vs. response) using the software GraphPad Prism 10.

[2] = Cellular viability, CCK cell viability assay; assay type: cell-based; conditions: human, MRC-5 cells (normal fetal lung fibroblasts)
Method: For the evaluation of cytotoxicity, compounds 1–15 were tested in the human normal fetal lung fibroblast MRC-5 cell line using the CCK cell viability assay. Each substance was tested at three different concentrations: 0.1 μM, 1 μM, and 10 μM. […] However, since all viability percentages were above 50%, no CC50 value could be calculated.
The normal human fetal lung fibroblast MRC-5 cell line (SI , 7)was cultured under standard conditions. Compounds were tested at 10 μM, 1 μM, and 0.1 μM. Results are expressed as mean ± standard deviation (SD) from triplicate experiments.
The previously established human normal MRC‐5 (human fetal lung fibroblasts; RRID:CVCL_0440)
approved for vaccine production was obtained, stored and used in a routine manner (1,2) in the
Laboratory of Pharmacology, School of Pharmacy, Aristotle University of Thessaloniki, Greece
(Laboratory of Ioannis S. Vizirianakis, Associate Professor in Molecular Pharmacology and
Pharmacogenomics) (<25 passages was applied). […]
Cell line MRC-5 information
ID/Proper Citation: (RRID:CVCL_0440)
URL: https://web.expasy.org/cellosaurus/CVCL_0440

HIV-1 = conditions: cited from earlier work
[3] = target: T1, HIV-1 RT-associated RNase H; set-up: method as in PMID 25092689; conditions: cited from earlier work

Structure (SMILES) | IC50 [1] | IC50 (recombinant HIV-1 RT) | inhibition at 4 µM (recombinant HIV-1 RT) | viability at 24 h, 10 µM [2] | Inhibition of viral replication (HIV-1) | IC50 ([3]; reference inhibitor) | Inhibition of RNase H activity ([3]; selective)
O=C1CSC(c2ccc(F)cc2)N1c1cccc(S(=O)(=O)Nc2nccs2)c1 (stereo not shown) [Compound 1, 3-(2-(4-Fluorophenyl)-4-oxothiazolidin-3-yl)-N-(thiazol-2-yl)benzenesulfonamide] | 14.3 ± 1.3 µM | 2.23 ± 0.15 µM | 68.3% | > 50% |  |  | 
O=C1CSC(c2c(Cl)cccc2Cl)N1c1nc2ccc(C(F)(F)F)cc2s1 (stereo not shown) [Compound 15, 2-(2,6-Dichlorophenyl)-3-(6-(trifluoromethyl)benzo[d]thiazol-2-yl)thiazolidin-4-one] | > 50 µM | > 4 µM | 8.52% | 57.9% |  |  | 
CCOC(=O)C(=O)CC(=O)/C=C/c1cccn1Cc1ccccc1Cl [RDS1759] |  |  |  |  | low micromolar range | 7.3 ± 0.1 µM | low micromolar range
O=C1CSC(c2ccccc2O)N1c1nc(-c2cccc(S(=O)(=O)N3CCCC3)c2)cs1 (stereo not shown) [Compound 5, 2-(2-Hydroxyphenyl)-3-(4-(3-(pyrrolidin-1-ylsulfonyl)phenyl)thiazol-2-yl)thiazolidin-4-one] | 18 ± 2.1 µM | > 4 µM | 45.2% | > 50% |  |  | 
Cc1ccnc2c1NC(=O)c1cccnc1N2C1CC1 [Nevirapine, reference compound] |  |  | 93.8% |  |  |  | 
O=C1CSC(c2c(F)cccc2F)N1c1nc(-c2ccc(F)cc2)cs1 (stereo not shown) [Compound 12, 2-(2,6-Difluorophenyl)-3-(4-(4-fluorophenyl)thiazol-2-yl)thiazolidin-4-one] | > 50 µM | > 4 µM | 5.86% | > 50% |  |  | 
O=C1CSC(c2c(F)cccc2F)N1c1nc(-c2ccc(S(=O)(=O)N3CCOCC3)cc2)cs1 (stereo not shown) [Compound 8, 2-(2,6-Difluorophenyl)-3-(4-(4-(morpholinosulfonyl)phenyl)thiazol-2-yl)thiazolidin-4-one] | > 50 µM | > 4 µM | 33% | > 50% |  |  | 
O=C1CSC(c2c(F)cccc2Cl)N1c1nc2ccc(C(F)(F)F)cc2s1 (stereo not shown) [Compound 11, 2-(2-Chloro-6-fluorophenyl)-3-(6-(trifluoromethyl)benzo[d]thiazol-2-yl)thiazolidin-4-one] | 25.4 ± 0.4 µM | 0.32 ± 0.03 µM | 92.4% | > 50% |  |  | 
O=C1CSC(c2c(Cl)cccc2Cl)N1c1nc(-c2ccc(S(=O)(=O)N3CCOCC3)cc2)cs1 (stereo not shown) [Compound 9, 2-(2,6-Dichlorophenyl)-3-(4-(4-(morpholinosulfonyl)phenyl)thiazol-2-yl)thiazolidin-4-one] | 9.01 ± 0.1 µM | > 4 µM | 2.48% | > 50% |  |  | 
COc1ccc(OC)c(C2SCC(=O)N2c2nc(-c3cccc(S(=O)(=O)N4CCCC4)c3)cs2)c1 (stereo not shown) [Compound 4, 2-(2,5-Dimethoxyphenyl)-3-(4-(3-(pyrrolidin-1-ylsulfonyl)phenyl)thiazol-2-yl)thiazolidin-4-one] | 1.47 ± 0.2 µM | 0.58 ± 0.07 µM | 86.6% | > 50% |  |  | 
COc1ccc(OC)c(C2SCC(=O)N2c2nc(-c3ccc(S(=O)(=O)N4CCOCC4)cc3)cs2)c1 (stereo not shown) [Compound 6, 2-(2,5-Dimethoxyphenyl)-3-(4-(4-(morpholinosulfonyl)phenyl)thiazol-2-yl)thiazolidin-4-one] | 2.5 ± 0.3 µM | 0.72 ± 0.06 µM | 81.3% | > 50% |  |  | 
N#Cc1ccc2nc(N3C(=O)CSC3c3c(F)cccc3F)sc2c1 (stereo not shown) [Compound 13, 2-(2-(2,6-Difluorophenyl)-4-oxothiazolidin-3-yl)benzo[d]thiazole-6-carbonitrile] | 16.4 ± 1.7 µM | > 4 µM | 21.4% | 55% |  |  | 
O=C1CSC(c2ccc(F)cc2)N1c1nc(-c2ccc(S(=O)(=O)N3CCOCC3)cc2)cs1 (stereo not shown) [Compound 7, 2-(4-Fluorophenyl)-3-(4-(4-(morpholinosulfonyl)phenyl)thiazol-2-yl)thiazolidin-4-one] | > 50 µM | > 4 µM | 12% | > 50% |  |  | 
O=C1CSC(c2ccc(F)cc2)N1c1nc(-c2cccc(S(=O)(=O)N3CCCC3)c2)cs1 (stereo not shown) [Compound 2, 2-(4-Fluorophenyl)-3-(4-(3-(pyrrolidin-1-ylsulfonyl)phenyl)thiazol-2-yl)thiazolidin-4-one] | > 50 µM | > 4 µM | 8.36% | > 50% |  |  | 
O=C1CSC(c2c(F)cccc2F)N1c1nc2cc(-c3ccccc3)c(-c3ccccc3)cc2s1 (stereo not shown) [Compound 14, 2-(2,6-Difluorophenyl)-3-(5,6-diphenylbenzo[d]thiazol-2-yl)thiazolidin-4-one] | > 50 µM | > 4 µM | 7.9% | > 50% |  |  | 
O=C1CSC(c2c(Cl)cccc2Cl)N1c1nc(-c2ccc(F)cc2)cs1 (stereo not shown) [Compound 10, 2-(2,6-Dichlorophenyl)-3-(4-(4-fluorophenyl)thiazol-2-yl)thiazolidin-4-one] | > 50 µM | > 4 µM | 1.59% | > 50% |  |  | 
O=C1CSC(c2c(F)cccc2F)N1c1nc(-c2cccc(S(=O)(=O)N3CCCC3)c2)cs1 (stereo not shown) [Compound 3, 2-(2,6-Difluorophenyl)-3-(4-(3-(pyrrolidin-1-ylsulfonyl)phenyl)thiazol-2-yl)thiazolidin-4-one] | > 50 µM | > 4 µM | 24.3% | > 50% |  |  | 
